{"source": "patent US20250305018A1", "about": "“SYNTHESIS OF GLYCOSYLATED HYDROXYTRYPTAMINE COMPOUNDS AND METHODS OF THEIR USE” (Cy Biopharma AG, priority 2022, published 2025)", "key": {"[1]": {"test": "Pharmacokinetic experiment in mice, brain tissue concentrations by LC-MS/MS", "type": "in vivo, C57Bl/6J mice", "settings": "higher doses, oral, compared to psilocybin", "procedure": "(§1) In a pharmacokinetic experiment in C57Bl/6J mice (3 animals per timepoint; schedule shown below) two example compounds, Cy1 (4-HO-EPT glycoside) and Cy2 (4-HO-DMT glycoside) were dosed at two different concentrations (20 mg/kg dose shown here) and the parent compounds and their de-glycosylated forms, 4-HO-EPT and psilocin (4-HO-DMT), respectively, were measured by LC-MS/MS in plasma and brain tissue samples. For comparison, psilocybin was dosed at 1.5 mg/kg orally and plasma and brain tissue concentrations of psilocin (4-HO-DMT) were measured. Samples were collected at four or five different timepoints (from 10-minutes post dosing up to 6-hours post dosing) following the test article administration.\n(§2) Results are reported in ng/mL for the concentration in plasma and in ng/g tissue for the concentration measured in brain samples.\n(§3) Results: The graphs in FIG. 35, FIG. 36, FIG. 37, and FIG. 38 display the time course of concentrations of compounds as indicated. For each time point the data for the individual animals are plotted."}, "[2]": {"test": "Pharmacokinetic experiment in mice, plasma concentrations by LC-MS/MS", "type": "in vivo, C57Bl/6J mice", "settings": "higher doses, oral, compared to psilocybin", "procedure": "as §1, §2, §3"}}}
{"smiles": "CCCN(CC)CCc1c[nH]c2cccc(O[C@@H]3O[C@H](CO)[C@@H](O)[C@H](O)[C@H]3O)c12", "note": "[Cy1, 4-HO-EPT glycoside]", "values": [{"measurement": "period of exposure, brain", "setting": "[1]", "value": "extended"}, {"measurement": "period of exposure, plasma", "setting": "[2]", "value": "extended"}]}
